One series relates to COX. The conditions noted are these: non-selective COX assay; cited from earlier work.
The procedure of series [1]: Thus, the final concentration of Na citrate was about 50 mM. Three cGMP registration lots of the formulation, each in three hundred liter volume, were manufactured and stored at temperatures of 5° C., 25° C., 30° C., or 40° C. for long-term stability evaluation. Aliquots were taken from each lot at intervals and analyzed for potency and presence of related substances. In addition, the lots were visually inspected for appearance and the pH was also monitored.
Related substances (RS) were detected by HPLC.

Series [2] is described as follows: One-liter scale stability study with or without Na2 EDTA, N2 overlay or sparge (Example 8). Type of series: physicochemical. Particulars: over six months.
A short description of series [3]: Formulation screening: storage stability, related substances by gradient HPLC (Examples 2-5). The format is physicochemical. Particulars: in the presence of 0.05% w/v Na2 EDTA versus none; up to thirty days. How it is done: The stability of the active pharmaceutical ingredients was tested in acetate or citrate buffers. […] Chromatographic conditions for the related substances assay were as follows: (a) Detection wave length, UV 215 nm; (b) Column, Zorbax SB-C8, 5 μm, 4.6×250 mm; (c) Column temp, 30±1° C.; (d) Sample temp, Ambient; (e) Flow rate, 1.2 mL/min; (f) Injection volume, 20 μL; (g) Run Time, 30 minutes.
F6 included 50 mM Na acetate buffer, pH 5.5; F7 included 50 mM Na citrate buffer, pH 5.5. […] Citric acid also has the ability to chelate divalent cations and can prevent oxidation, thus acting both as a buffering agent and an antioxidant.
The Stability of the Active Pharmaceutical Ingredients was Tested in Buffers with varying pH values. […] Data not shown. Both formulations included 50 mM Na citrate buffer. F8 pH was 6.5 and F9 pH was 5.5.
The stability of the active, pharmaceutical ingredients in liquid formulation was tested in the presence of N2 overlay and light protection. Two formulations, F10 and F11, were prepared and stored for up to 28 days under the conditions shown in FIG. 4A, i.e., with or without N2 overlay and light protection. […] F10 was prepared under protection from light and N2 overlay post-compounding and pre-filling of formulation into vials, while F11 was not.
The effect of antioxidants on stability of the active pharmaceutical ingredients in liquid formulation was tested. […]

Series [4] addresses non-human 5-HT1A, 5-HT1B and 5-HT1D receptors. Particulars: range over non-human 5-HT1A; cited from earlier work.
Series [5] has as its target human 5-HT1B and 5-HT1D receptors. The conditions noted are these: range over human 5-HT1B and 5-HT1D receptors; cited from earlier work.
The next series addresses 5-HT1B/1D receptor. The conditions noted are these: human saphenous vein; read-out: IC50 (functional agonist); cited from earlier work.
Series [6] concerns the target α1A- and α2A-adrenoceptors. The conditions noted are these: range over α1A- and α2A-adrenoceptors; cited from earlier work.

Each structure is given as a SMILES string. Counter-ions that a name gives are not always drawn. Like-named read-outs stand apart in the source and are kept apart here.

`CC(C(=O)O)c1cccc(C(=O)c2ccccc2)c1` (stereo not drawn) [Ketoprofen, ketoprofen]: the IC50 in the series with COX was 4 to 8 nM.
Take `Cc1cc(C(C)(C)C)c(O)c(C)c1CC1=NCCN1` [Oxymetazoline HCl, oxymetazoline HCl]: the “total RS %” value in series [1] (stored at 30° C. and 40° C.) is “increased significantly”; in series [1] (two years at 5° C.) it was 0.00%; in series [1] (two years at 25° C.), “about 0.15%”. Moreover, the “related substances of the named API” value in series [2] is on record as “less than 1%”.
`CN(C)CCC=C1c2ccccc2CCc2ccccc21` [amitriptyline HCl]: in series [3], the chemical stability result was “improved”. In addition, the “stability in the tested formulation” value in series [1] is “stable”. Further, the RS presence entry in series [1] (4° C.) is “present sporadically”. In addition, the “percentage of RS over time” value in series [1] (25° C. and 30° C.) was “increased over the first three months, and then was stable for up to two years”; in series [1] (40° C.), “increased during the first month and then stabilized”. Besides, the “related substances of the named API” value in series [2] is “less than 5%”.
Take `Cc1cc(C(C)(C)C)c(O)c(C)c1CC1=NCCN1` [oxymetazoline]: the IC50 in series [4] was 3 to 26 nM; at 5-HT1B/1D receptor it was 30 nM. The Ki in series [5] was 0.3 to 0.4 nM; in series [6], 3 to 6 nM.

Source of the values: patent US20180344855A1, “Stable Anti-inflammatory Solutions for Injection” (Omeros Corporation, priority 2011, published 2018).
